US4937390A, “Compound useful for the production of 3-deoxy-3-fluoro-myo-inositol” (University of Pittsburgh, priority 1989, dated 1990)

Target: T1, myo-inositol transporter (Rattus norvegicus, UniProt Q80WA5)
T1 construct: PC12 cells were gently detached and maintained in a suspension culture; endogenous in cells; host or cells: PC12 cells
T1 sequence (Q80WA5 1-718): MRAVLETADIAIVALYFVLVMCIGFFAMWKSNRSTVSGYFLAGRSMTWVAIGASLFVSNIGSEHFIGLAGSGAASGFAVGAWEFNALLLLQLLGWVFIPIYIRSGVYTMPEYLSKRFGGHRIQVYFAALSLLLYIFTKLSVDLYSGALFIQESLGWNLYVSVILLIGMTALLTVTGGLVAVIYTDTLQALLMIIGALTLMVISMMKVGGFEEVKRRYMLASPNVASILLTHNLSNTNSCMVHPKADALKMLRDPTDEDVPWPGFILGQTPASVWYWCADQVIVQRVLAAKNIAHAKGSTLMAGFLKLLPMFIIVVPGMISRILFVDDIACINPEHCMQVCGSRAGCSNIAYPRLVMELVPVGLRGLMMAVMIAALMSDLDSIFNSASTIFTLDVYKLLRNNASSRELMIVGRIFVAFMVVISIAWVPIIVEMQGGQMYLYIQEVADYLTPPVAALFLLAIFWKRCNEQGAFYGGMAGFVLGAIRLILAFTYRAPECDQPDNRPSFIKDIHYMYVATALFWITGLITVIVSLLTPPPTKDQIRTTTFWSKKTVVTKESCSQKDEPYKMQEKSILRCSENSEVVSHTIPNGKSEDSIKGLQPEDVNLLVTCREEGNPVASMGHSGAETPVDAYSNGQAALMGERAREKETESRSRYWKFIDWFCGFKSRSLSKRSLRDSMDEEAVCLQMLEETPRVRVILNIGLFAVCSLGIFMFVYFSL
Assay: [3H]myo-inositol uptake by the myo-inositol transporter in PC12 cells
Format: cell-based
Settings: for block of [3H]myo-inositol uptake / Maximal Transport Rate Vmax / Ki: PC12 cells; for Maximal Transport Rate Vmax: in the presence of 1 mM analog; for Ki: uptake studies in the presence of a fixed concentration (1 mM) of analog, read-out: Affinity Constant K (Ki of the analog)
Description: To determine if the effect of the fluoro-myo-inositol analogs might be mediated by the blockade of the myo-inositol transporter, which is responsible for uptake and accumulation of myo-inositol into the cell, the ability of these two compounds to block [^3 H]myo-inositol transport was studied directly.
The uptake of [^3 H]myo-inositol by the myo-inositol transporter was determined as follows:
PC12 cells were gently detached and maintained in a suspension culture in RPMI medium (both myo-inositol and serum free) at 37° C. ]^3 H]myo-inositol was added to this culture at a concentration of 1μCi/ml. Aliquots of this suspension were removed at the indicated time, diluted in 10 volumes of ice-cold PBS containing 10 mM unlabelled myo-inositol to stop the uptake process, centrifuged at 4° C. for 20 minutes at 50 xg. The cell pellet, which contained the transported [^3 H]myo-inositol, was dissolved in dilute NaOH and the radioactivity quantified by liquid scintillation counting.
The […] and Vmax of myoinositol were determined from LineweaverBurke plots
of the uptake of [^3 H]myoinositol (25 nM) in the presence of
increasing concentrations of unlabeled myoinositol in PC12 cells. The Ki
of the two fluoromyo-inositol analogs was determined by conducting the
uptake studies in the presence of a fixed concentration (1 mM) of each

SMILES: O[C@@H]1[C@@H](O)[C@@H](O)[C@@H](F)[C@H](O)[C@H]1O [1-deoxy-1-fluoro-myo-inositol]
- affinity for the myo-inositol transporter, fold lower than the 3-fluoro-myo-inositol analog: 5.7 fold
- block of [3H]myo-inositol uptake: did block
- Maximal Transport Rate Vmax: 2.27 nmol/mg/h
- Ki: 1430 µM

SMILES: O[C@@H]1[C@@H](O)[C@H](O)[C@@H](F)[C@@H](O)[C@H]1O [3-deoxy-3-fluoro-myo-inositol]
- potency in blocking myo-inositol transport relative to the 1-fluoro myo-inositol analog: 5.7 times
- block of [3H]myo-inositol uptake: did block
- Maximal Transport Rate Vmax: 2.27 nmol/mg/h
- Ki: 250 µM
